This is an account of results in patent US20240327425A1, “KRAS G12D INHIBITOR AND USE THEREOF” (SHANGHAI DE NOVO PHARMATECH CO., LTD., priority 2021, published 2024).

Structures can show the parent of a compound that is named as a salt.

The test has as its target Human KRAS G12D His-tagged protein (Homo sapiens (Human), UniProt P01116, G12D). Nature of the test: KRAS G12D binding assay (TR-FRET). Conditions: GDP 20 nM, GTP-Red. The protocol:
The binding ability of the compound to KRAS G12D protein was detected by TR-FRET method, and the inhibitory activity of the compound on KRAS G12D protein was evaluated. Human KRAS G12D His-tagged (Cisbio, 63ADK000CB27PEG) protein was 100-fold diluted with PPI Eu detection buffer (Cisbio, 61DB9RBF), then 5 μL of which was added to a 384-well plate and centrifuged at 2000 rpm for 40 seconds. A 10 mM concentrated stock solution of the test compound was prepared with dimethyl sulfoxide, 3-fold serially diluted, then diluted to make a working solution (0.5% DMSO) with PPI Eu detection buffer, added to a 384-well plate at 5 μL/well, with the control group added with 0.5% dimethyl sulfoxide and the highest concentration of the test compound at 10 μM, and centrifuged at 2000 rpm for 40 seconds. An 80 nM GDP standard working solution (Cisbio, 63ADK000CB27PEG) was prepared with PPI Eu detection buffer and added to a 384-well plate at 5 μL/well, with the final concentration of GDP standard working solution at 20 nM. The plate was centrifuged at 2000 rpm for 40 seconds and reacted at room temperature for 30 minutes. 1×6His Eu cryptate antibody and GTP-Red reagent (Cisbio, 63ADK000CB27PEG) were prepared with PPI Eu detection buffer, mixed in a volume ratio of 1:1, 5 μL of which was then added to a 384-well plate, centrifuged at 2000 rpm for 40 seconds, and incubated at room temperature for 30 minutes. The fluorescence intensity at 620 nm and 665 nm was detected by a microplate reader, and the inhibitory activity of the compound on KRAS G12D protein was obtained by fitting a four-parameter equation.
Consider “4-((5aS,6S,9R)-3-chloro-1-fluoro-13-(((2R,7aS)-2-fluorohexahydro-1H-pyrrolizin-7a-yl)methoxy)-5a,6,7,8,9,10-hexahydro-5H-6,9-epiminoazepino[2′,1′:3,4][1,4]oxazepino[5,6,7-de]quinazolin-2-yl)-1-(difluoromethyl)-1H-benzo[d]imidazol-2-amine ditrifluoroacetate [Compound I-23]”, for which the IC50 is 217 nM.
As for `N#Cc1c(N)sc2cccc(-c3c(Cl)c4c5c(nc(OC[C@@]67CCCN6C[C@H](F)C7)nc5c3F)N3C[C@H]5CC[C@H](N5)[C@H]3CO4)c12` (single isomer, unassigned) [Compound I-7-1], the figure is 186 nM; as for `N#Cc1c(N)sc2c(F)ccc(-c3c(Cl)c4c5c(ncnc5c3F)N3C[C@H]5CC[C@H](N5)[C@H]3CO4)c12` (single isomer, unassigned) [Compound I-8-2], 60.4 nM; as for `N#Cc1c(N)sc2cccc(-c3c(Cl)c4c5c(ncnc5c3F)N3C[C@H]5CC[C@H](N5)[C@H]3CO4)c12` (single isomer, unassigned) [Compound I-10-2], 75.8 nM.
For `N#Cc1c(N)sc2c(F)ccc(-c3c(Cl)c4c5c(nc(OC[C@@]67CCCN6C[C@H](F)C7)nc5c3F)N3C[C@H]5CC[C@H](N5)[C@H]3CO4)c12` (single isomer, unassigned) [Compound I-11-2], the IC50 is 5.9 nM.
As for `Nc1nc2c(-c3c(Cl)c4c5c(nc(OC[C@@]67CCCN6C[C@H](F)C7)nc5c3F)N3C[C@H]5CC[C@H](N5)[C@H]3CO4)cccc2s1` (single isomer, unassigned) [Compound I-12-1], the figure is 30.3 nM; as for `Nc1nc2c(-c3c(Cl)c4c5c(nc(OC[C@@]67CCCN6C[C@H](F)C7)nc5c3F)N3C[C@H]5CC[C@H](N5)[C@H]3CO4)ccc(F)c2s1` (single isomer, unassigned) [Compound I-19-2], 4.63 nM; as for `[2H]C([2H])(Oc1nc2c3c(c(Cl)c(-c4cccc5sc(N)c(C#N)c45)c(F)c3n1)OC[C@@H]1[C@@H]3CC[C@H](CN21)N3)[C@@]12CCCN1C[C@H](F)C2` (single isomer, unassigned) [Compound I-24-1], 136 nM.
Compound `Nc1n[nH]c2sc3cccc(-c4c(Cl)c5c6c(nc(OC[C@@]78CCCN7C[C@H](F)C8)nc6c4F)N4C[C@H]6CC[C@H](N6)[C@H]4CO5)c3c12` (single isomer, unassigned) [Compound I-26-2] displayed an IC50 of 11 nM.
For `[2H]C1([2H])CC[C@@]2(C([2H])([2H])Oc3nc4c5c(c(Cl)c(-c6cccc7sc(N)c(C#N)c67)c(F)c5n3)OC[C@@H]3[C@@H]5CC[C@H](CN43)N5)C[C@@H](F)CN12` (single isomer, unassigned) [Compound I-27-1], the IC50 was found to be 212 nM.
`C#Cc1cccc2cc(O)cc(-c3nc4c5c(nc(OC[C@@]67CCCN6C[C@H](F)C7)nc5c3F)N3CC5CCC(N5)C3CO4)c12` (stereo partly drawn) [Compound I-1-1, 5-ethynyl-4-(1-fluoro-12-(((2R,7aS)-2-fluorohexahydro-1H-pyrrolizin-7a-yl)methoxy)-5a,6,7,8,9,10-hexahydro-5H-4-oxa-3,10a,11,13,14-pentaaza-6,9-methanonaphtho[1,8-ab]heptan-2-yl)naphthalen-2-ol] had an IC50 of 11 nM.
`C#Cc1cccc2cc(O)cc(-c3nc4c5c(nc(OC[C@@]67CCCN6C[C@H](F)C7)nc5c3F)N3C[C@H]5CC[C@H](N5)[C@H]3CO4)c12` [Compound I-4, 5-ethynyl-4-((5aS,6S,9R)-1-fluoro-12-(((2R,7aS)-2-fluorohexahydro-1H-pyrrolizin-7a(5H)-yl)methoxy)-5a,6,7,8,9,10-hexahydro-5H-4-oxa-3,10a,11,13,14-pentaaza-6,9-methanonaphtho[1,8-ab]heptan-2-yl)naphthalen-2-ol ditrifluoroacetate] gave an IC50 of 2.72 nM.
The compound `C#Cc1cccc2cc(O)cc(-c3nc4c5c(nc(OC[C@@]67CCCN6C[C@H](F)C7)nc5c3F)N3C[C@@H]5CC[C@@H](N5)[C@@H]3CO4)c12` [Compound I-5, 5-ethynyl-4-((5aR,6R,9S)-1-fluoro-12-(((2R,7aS)-2-fluorohexahydro-1H-pyrrolizin-7a(5H)-yl)methoxy)-5a,6,7,8,9,10-hexahydro-5H-4-oxa-3,10a,11,13,14-pentaaza-6,9-methanonaphtho[1,8-ab]heptan-2-yl)naphthalen-2-ol ditrifluoroacetate] showed an IC50 of 25.4 nM.
Compound `N#Cc1c(N)sc2cccc(-c3c(Cl)c4c5c(ncnc5c3F)N3CC5CCC(N5)C3CO4)c12` (stereo not drawn) [Compound I-6-2, 2-amino-4-(3-chloro-1-fluoro-5a,6,7,8,9,10-hexahydro-5H-6,9-epiminoazepino[2′,1′:3,4][1,4]oxazepino[5,6,7-de]quinazolin-2-yl)benzo[b]thiophene-3-carbonitrile (trans) trifluoroacetate] had an IC50 of 53.5 nM.
In turn, `N#Cc1c(N)nn2cccc(-c3c(Cl)c4c5c(nc(OC[C@@]67CCCN6C[C@H](F)C7)nc5c3F)N3C[C@H]5CC[C@H](N5)[C@H]3CO4)c12` [Compound I-13, 2-amino-4-((5aS,6S,9R)-3-chloro-1-fluoro-13-(((2R,7aS)-2-fluorohexahydro-1H-pyrrolizin-7a-yl)methoxy)-5a,6,7,8,9,10-hexahydro-5H-6,9-epiminoazepino[2′,1′:3,4][1,4]oxazepino[5,6,7-de]quinazolin-2-yl)pyrazolo[1,5-a]pyridine-3-carbonitrile] registered an IC50 of 32.5 nM.
`Nc1cc2c(-c3c(Cl)c4c5c(nc(OC[C@@]67CCCN6C[C@H](F)C7)nc5c3F)N3C[C@H]5CC[C@H](N5)[C@H]3CO4)c(Cl)ccc2s1` [Compound I-15, 5-chloro-4-((5aS,6S,9R)-3-chloro-1-fluoro-13-(((2R,7aS)-2-fluorohexahydro-1H-pyrrolizin-7a-yl)methoxy)-5a,6,7,8,9,10-hexahydro-5H-6,9-epiminoazepino[2′,1′:3,4][1,4]oxazepino[5,6,7-de]quinazolin-2-yl)benzo[b]thiophen-2-amine ditrifluoroacetate] came in with an IC50 of 38.1 nM.
As for `Nc1cc2cc(-c3c(Cl)c4c5c(nc(OC[C@@]67CCCN6C[C@H](F)C7)nc5c3F)N3C[C@H]5CC[C@H](N5)[C@H]3CO4)ccc2s1` [Compound I-16, 5-((5aS,6S,9R)-3-chloro-1-fluoro-13-(((2R,7aS)-2-fluorohexahydro-1H-pyrrolizin-7a-yl)methoxy)-5a,6,7,8,9,10-hexahydro-5H-6,9-epiminoazepino[2′,1′:3,4][1,4]oxazepino[5,6,7-de]quinazolin-2-yl)benzo[b]thiophen-2-amine ditrifluoroacetate], the IC50 was 24 nM.
As for `CC(Oc1nc2c3c(c(Cl)c(-c4cccc5sc(N)c(C#N)c45)c(F)c3n1)OCC1C3CCC(CN21)N3)C12CCCN1CC(F)C2` [Compound I-17-1, 2-amino-4-((5aS,6S,9R)-3-chloro-1-fluoro-13-(1-((2R,7aS)-2-fluorohexahydro-1H-pyrrolizin-7a-yl)ethoxy)-5a,6,7,8,9,10-hexahydro-5H-6,9-epiminoazepino[2′,1′:3,4][1,4]oxazepino[5,6,7-de]quinazolin-2-yl)benzo[b]thiophene-3-carbonitrile], the figure is 646 nM; as for `CC(Oc1nc2c3c(c(Cl)c(-c4cccc5sc(N)c(C#N)c45)c(F)c3n1)OC[C@H]1[C@@H]3CC[C@H](CN21)N3)[C@@]12CCCN1C[C@@H](F)C2` (stereo partly drawn) [Compound I-17-2, 2-amino-4-((5aS,6S,9R)-3-chloro-1-fluoro-13-(1-((2R,7aS)-2-fluorohexahydro-1H-pyrrolizin-7a-yl)ethoxy)-5a,6,7,8,9,10-hexahydro-5H-6,9-epiminoazepino[2′,1′:3,4][1,4]oxazepino[5,6,7-de]quinazolin-2-yl)benzo[b]thiophene-3-carbonitrile], 6.9 nM; as for `CC(Oc1nc2c3c(c(Cl)c(-c4c(F)ccc5sc(N)c(C#N)c45)c(F)c3n1)OC[C@@H]1[C@@H]3CC[C@H](CN21)N3)[C@@]12CCCN1C[C@H](F)C2` (stereo partly drawn) [Compound I-18, 2-amino-4-((5aS,6S,9R)-3-chloro-1-fluoro-13-(1-((2R,7aS)-2-fluorohexahydro-1H-pyrrolizin-7a-yl)ethoxy)-5a,6,7,8,9,10-hexahydro-5H-6,9-epiminoazepino[2′,1′:3,4][1,4]oxazepino[5,6,7-de]quinazolin-2-yl)-5-fluorobenzo[b]thiophene-3-carbonitrile ditrifluoroacetate], 22 nM.
Compound `CN1CCC[C@@H]1COc1nc2c3c(c(Cl)c(-c4cccc5sc(N)c(C#N)c45)c(F)c3n1)OC[C@@H]1[C@@H]3CC[C@H](CN21)N3` [Compound I-29] had an IC50 of 10.8 nM.
